# Test results reported in patent publication US6699969B1, “Assays for the detection of microtubule depolymerization inhibitors” (The Regents of the University of California, priority 1998, dated 2004).
# Tested on: MSU1.1 human fibroblasts
# Assay: Centrosome targeting of GFP fusion after transient transfection
# Assay type: cell-based
# Details: 2-4 hr after transfection
# Description: To allow transient expression of a human p80 WD40-GFP fusion protein in HeLa cells, a DNA fragment containing amino acids 1-263 of human p80 katanin was generated by PCR amplification, placing a BamHl site and a Kozak consensus at the predicted translation start and an EcoRI site after the codon for a.a. 263. This BamH1-EcoR1 fragment was ligated into the GFP fusion vector pEGFP-N1 (Clontech).
# Both MSU1.1 and Hela cells were grown on 18 mm glass coverslips in Optimem medium (Life Technologies) supplemented with 10% fetal bovine serum, penicillin and streptomycin. Plasmids were transfected using Superfect Reagent (Qiagen) for 2 hr after which coverslips were washed with PBS and placed in fresh culture medium at 37° C. with 5% CO2 for 1-24 hr.
# For imaging of GFP-fluorescence and immunofluorescence with the human p80 katanin antibody or with the γ-tubulin antibody, monoclonal GTU88 (Sigma Chemical), cells on coverslips were fixed either in −20° C. methanol or in 0.5×PBS, 3.7% formaldehyde, 75% methanol at 22° C. for 10 min followed by rehydration in TBST. Antibody labelling was carried out in TBST containing 4% BSA. Images were captured with a Nikon Microphot SA microscope, 100× Plan Fluor 1.3 objective, Photometrics Quantix camera and IP Lab Spectrum software (Scanalytics).
substance,measurement,value
p80 WD40-GFP: six WD40 repeats of human p80 katanin (a.a. 1-263) appended to N-terminus of green fluorescent protein,localization of green fluorescence,co-localized with γ-tubulin staining
